The values that follow come from patent US7462601B2, “Ameliorant for chemical treatment of cancer” (priority 2002, dated 2008).

SMILES strings stand for the structures.

What all share (assay type): in vivo, BDF mice
Data set [1] in a line: Repressing side effects (1): survival after lethal dose of CDDP. The method, then:
CDDP was intraperitoneally administered in a dosage of 16 mg/kg, a lethal dose, to 10 BDF mice of 8 weeks old (22-25 g). These mice formed Control Group. A group of mice to which CDDP was administered simultaneously with TMG in a dosage of 0.01 mg/kg formed Test Group 1 and a group of mice to which CDDP was administered simultaneously with TMG in a dosage of 1.0 mg/kg formed Test Group 2. The time course changes of survival ratio of the Control Group and Test Groups were measured.

Data set [2] concerns P388 leukemia cells. The experiment in a line: Enhancing carcinostatic action in cancer chemotherapy (1): CDDP and TMG, survival of P388 leukemia mice. The conditions noted are these: 5th, TMG 0, 60 days; for Number surviving: 8 per group. The method, then:
P388 leukemia cells (6×10^6 cells) were administered intraperitoneally to female BDF mice of 8-9 weeks old (8 heads per group, body weight of 20-22 g). On the following day, a solution having prescribed amounts of cisplatin (CDDP) and TMG in 0.2 ml of physiological saline was intraperitoneally administered to the mice. The survival ratio of these mice was measured 60 days after the administration of CDDP and TMG.

Data set [3] is described as follows: Repressing side effects (2): number of leukocytes in blood under CDDP. The conditions noted are these: Control Group: CDDP 2 mg/kg i.p. once daily for 10 days. The protocol:
CDDP was intraperitoneally administered in a dosage of 2 mg/kg to 5 BDF mice of 8 weeks old once daily for 10 days. These mice formed Control Group. A group of mice to which CDDP was administered simultaneously with TMG in a dosage of 1 mg/kg once daily for 10 days formed Test Group. The time course changes of the numbers of leukocytes in blood of the Control Group and Test Group were measured.

For data set [4], the system named is P388 leukemia cells. The experiment in a line: Enhancing carcinostatic action in cancer chemotherapy (2): CPA and TMG, survival of P388 leukemia mice. The conditions noted are these: CPA alone administered, 360 mg/kg i.p. 1st, 3rd, 5th, 7th days, 60 days. The protocol: P388 leukemia cells (6×10^6 cells) were administered intraperitoneally to female BDF mice of 8-9 weeks old (8 heads per group, body weight of 20-22 g). On the following day (1st day), cyclophosphamide (CPA) and TMG were administered at respective dose of 360 mg/kg and 0.01 mg/kg were intraperitoneally administered to the mice. Thereafter, CPA (360 mg/kg) was administered on the 3rd, 5th, and 7th days and TMG (0.01 mg/kg) was administered every day from the 2nd through 9th days. The survival ratio of these mice was measured 60 days after the administration of CPA and TMG.

The subject of data set [5] is P388 leukemia cells. The experiment in a line: Enhancing carcinostatic action in cancer chemotherapy (3): ADM and TMG, survival of P388 leukemia mice. As to conditions: ADM 16 mg/kg i.p. 1st, 3rd, 5th, 7th days, TMG 0, 7 days after administration. The protocol: P388 leukemia cells (6×10^6 cells) were administered intraperitoneally to female BDF mice of 8-9 weeks old (8 heads per group, body weight of 20-22 g). On the following day (1st day), 16 mg/kg of adriamycin (ADM) and a prescribed amount TMG were intraperitoneally administered to the mice. Thereafter, ADM (16 mg/kg) was administered on the 3rd, 5th, and 7th days and TMG (prescribed amount as mentioned above) was simultaneously administered every day on the 2nd-7th days. The survival ratio of these mice was measured 7 days after the administration of ADM and TMG.

Data set [6] is described as follows: Repressing side effects (4): decrease of body weight under ADM in P388 leukemia mice. As to conditions: Control Group: ADM 16 mg/kg once daily for 9 days. The method, then:
P388 leukemia cells (6×10^6 cells) were administered intraperitoneally to female BDF mice of 8-9 weeks old (8 heads per group, body weight of 20-22 g). On the following day, ADM was administered in a dosage of 16 mg/kg once daily for 9 days. The mice formed Control Group. A group of mice to which TMG was administered simultaneously with ADM in a dosage of 0.1 mg/kg once daily for 9 days formed Test Group.
The time-course changes of the body weight of the Control Group and Test Group were measured.

Setting [7] is: CDDP 2 mg/kg i.p. 1st, 3rd, 7th days.
[8] abbreviates: CDDP 4 mg/kg i.p. 1st, 9th days.

Consider `[NH2][Pt]([NH2])([Cl])[Cl]` [CDDP, cisplatin], for which the Survival ratio came to 100% in data set [1] (Control Group: CDDP 16 mg/kg i.p. (lethal dose) alone, day 0 after administration of CDDP); 80% in data set [1] (Control Group: CDDP 16 mg/kg i.p. alone, day 5); 30% in data set [1] (Control Group: CDDP 16 mg/kg i.p. alone, day 8); 0% in data set [1] (Control Group: CDDP 16 mg/kg i.p. alone, day 10); 75% in the data set with P388 leukemia cells [2] (setting [7]); 75% in the data set on P388 leukemia cells [2] (setting [8]). Moreover, the Number surviving in the data set with P388 leukemia cells [2] (setting [7]) and with P388 leukemia cells [2] (setting [8]) was 6 Heads throughout. The Number of leukocytes in data set [3] (day 0 after start of test) came to 20000 µL⁻¹; in data set [3] (day 10) it was 10000 µL⁻¹; in data set [3] (day 20) it was 6000 µL⁻¹; in data set [3] (day 25) it was 11000 µL⁻¹.

Consider `O=P1(N(CCCl)CCCl)NCCCO1` (centres unmarked) [CPA, cyclophosphamide], for which the Survival ratio in the data set with P388 leukemia cells [4] was determined as 50%. Moreover, in the data set on P388 leukemia cells [4] (8 per group), the Number surviving amounted to 4 Heads.

As to `COc1cccc2c1C(=O)c1c(O)c3c(c(O)c1C2=O)C[C@@](O)(C(=O)CO)C[C@@H]3O[C@H]1C[C@H](N)[C@H](O)[C@H](C)O1` [ADM, adriamycin], the Survival ratio with P388 leukemia cells [5] turned out to be 0%. Also, the Number surviving with P388 leukemia cells [5] (8 per group) is on record as 0 Heads. In addition, the “Decrease of body weight” value is listed as 1.5 g in data set [6] (P388 mice, day 1 after start of the test); 3.3 g in data set [6] (day 3); 5.7 g in data set [6] (day 5); 6.5 g in data set [6] (day 7).
